Data reported in patent publication US9244081B2, “Cell-based fluorescent assays for identifying alpha and delta ENaC modulators” (Senomyx, Inc., priority 2006, dated 2016).

What was measured:
[1] = test system: perceived human salt intensity; test: Human salty taste intensity test; type: in vivo; settings: 300-fold (amiloride) and 3000-fold (benzamil) above IC50 for alpha beta gamma ENaC in oocytes
Text: Unlike other mammals, amiloride only slightly reduces the intensity of sodium chloride taste, i.e., by about 15-20% when used at concentrations that specifically modulate ENaC function. […] Thus, additional non-ENaC genes are likely involved in human taste and other biological functions.

[2] = test system: perceived human salt intensity; settings: concentrations that specifically modulate ENaC function; cited from earlier work
[3] = molecular target: T1, alphaENaC channel (human alpha, beta and gamma subunits) (Homo sapiens, UniProt P37088+P51168+P51170); test: FLIPR membrane potential dye assay, dye loaded in absence of sodium (Protocol 1), alphaENaC-transfected HEK293 cells; type: cell-based
T1 construct: expressed in transfected cells; host or cells: HEK293, transient transfection
T1 sequence (P37088 1-669): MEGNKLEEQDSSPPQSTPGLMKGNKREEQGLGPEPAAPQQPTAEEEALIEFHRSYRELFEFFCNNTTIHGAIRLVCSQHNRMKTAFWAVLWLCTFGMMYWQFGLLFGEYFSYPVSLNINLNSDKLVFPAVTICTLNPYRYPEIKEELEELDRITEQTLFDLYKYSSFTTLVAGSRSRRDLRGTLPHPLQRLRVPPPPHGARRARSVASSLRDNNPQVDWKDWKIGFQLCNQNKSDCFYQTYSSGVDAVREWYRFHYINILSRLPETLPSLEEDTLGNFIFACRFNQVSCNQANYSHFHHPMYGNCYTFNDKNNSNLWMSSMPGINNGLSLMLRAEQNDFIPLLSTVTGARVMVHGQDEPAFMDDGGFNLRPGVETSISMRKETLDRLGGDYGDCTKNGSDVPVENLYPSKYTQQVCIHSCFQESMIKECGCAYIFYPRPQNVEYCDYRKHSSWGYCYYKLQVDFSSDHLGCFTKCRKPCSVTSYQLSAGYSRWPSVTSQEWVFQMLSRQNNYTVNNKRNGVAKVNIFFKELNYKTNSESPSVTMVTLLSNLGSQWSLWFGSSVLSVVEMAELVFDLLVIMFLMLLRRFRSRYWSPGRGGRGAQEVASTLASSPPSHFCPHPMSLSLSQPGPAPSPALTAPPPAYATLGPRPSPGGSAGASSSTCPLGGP
T1 sequence (P51168 1-640): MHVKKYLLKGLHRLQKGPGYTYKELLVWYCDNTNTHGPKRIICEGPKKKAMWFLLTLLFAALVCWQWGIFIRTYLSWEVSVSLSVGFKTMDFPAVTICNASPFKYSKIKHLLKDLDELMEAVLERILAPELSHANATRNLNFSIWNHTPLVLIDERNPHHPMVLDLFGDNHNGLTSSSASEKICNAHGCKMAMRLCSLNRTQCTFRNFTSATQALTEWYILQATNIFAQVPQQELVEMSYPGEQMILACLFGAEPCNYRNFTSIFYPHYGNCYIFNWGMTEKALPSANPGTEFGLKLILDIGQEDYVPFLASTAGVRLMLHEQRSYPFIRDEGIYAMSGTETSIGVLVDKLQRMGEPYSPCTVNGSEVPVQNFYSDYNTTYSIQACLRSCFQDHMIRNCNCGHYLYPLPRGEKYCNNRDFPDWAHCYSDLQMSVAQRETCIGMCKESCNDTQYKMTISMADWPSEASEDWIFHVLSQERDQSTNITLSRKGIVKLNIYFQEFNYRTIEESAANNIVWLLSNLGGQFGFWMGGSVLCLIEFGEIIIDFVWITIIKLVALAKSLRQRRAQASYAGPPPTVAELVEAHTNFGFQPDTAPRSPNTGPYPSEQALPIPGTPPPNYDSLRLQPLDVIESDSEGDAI
T1 sequence (P51170 1-649): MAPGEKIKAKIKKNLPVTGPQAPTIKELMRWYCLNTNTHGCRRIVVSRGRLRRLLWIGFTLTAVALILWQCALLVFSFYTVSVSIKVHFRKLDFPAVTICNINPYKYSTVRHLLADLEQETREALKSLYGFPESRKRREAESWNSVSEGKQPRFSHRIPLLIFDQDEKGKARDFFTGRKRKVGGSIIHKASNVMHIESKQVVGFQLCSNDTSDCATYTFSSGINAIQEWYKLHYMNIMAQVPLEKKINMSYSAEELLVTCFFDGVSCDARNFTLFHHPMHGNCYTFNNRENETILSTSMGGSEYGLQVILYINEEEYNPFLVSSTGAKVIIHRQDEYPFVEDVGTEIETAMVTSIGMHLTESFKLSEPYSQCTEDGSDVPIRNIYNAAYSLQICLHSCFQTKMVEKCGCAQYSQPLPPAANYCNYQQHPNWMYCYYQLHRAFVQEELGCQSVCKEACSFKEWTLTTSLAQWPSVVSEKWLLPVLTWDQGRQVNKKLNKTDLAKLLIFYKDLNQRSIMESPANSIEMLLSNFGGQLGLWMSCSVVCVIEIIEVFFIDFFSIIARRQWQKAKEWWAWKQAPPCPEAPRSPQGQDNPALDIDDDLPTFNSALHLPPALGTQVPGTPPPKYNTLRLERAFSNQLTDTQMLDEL
Text: (§1) In this experiment HEK293 cells which were transfected with sequences encoding the human alpha, beta and gamma subunits were used to screen for the effect of amiloride on NaCl induced changes in membrane potential. […] These HEK293 cells were transiently transfected with plasmids containing the alpha, beta and gamma ENaC encoding nucleic acid sequences and then loaded with a membrane potential dye (FMP; Molecular Devices) in the absence of sodium (NaCl was replaced with NMDG) at room temperature for one hour. Cells were then stimulated with 70 mM NaCl with (red trace) or without (white trace) 6.25 micromolar amiloride. Changes in membrane potential (fluorescent signal) in HEK293 cells were monitored on a FLIPR system (Molecular Devices). […] HEK293 cells were transiently transfected with the gamma, beta, and delta subunit containing plasmids and were loaded with a membrane potential dye (FMP; Molecular Devices) in the absence of sodium (NaCl was replaced with NMDG) at room temperature for one hour. Cells were then stimulated with 70 mM NaCl with (red trace) or without (white trace) 50 micromolar amiloride. Changes in membrane potential (fluorescent signal) were monitored on a FLIPR system (Molecular Devices). […] Therein cells were prepared and treated as in Panels A and B. Increasing concentrations of amiloride were used to assess potency at inhibiting the different forms of ENaC.
This example relates to the fluorescent experiments contained in FIG. 2, Panels A, B and C. In the experiment in Panel A it can be seen that the enhancer S559 increases the NaCl-induced change in membrane potential in HEK293 cells expressing the alphaENaC channel. […] Changes in membrane potential (fluorescent signal) were monitored on a FLIPR system (Molecular Devices). […] Changes in membrane potential (Fluorescent signal) were monitored on a FLIPR system (Molecular Devices).

[4] = molecular target: T2, alphaENaC channel (alpha, beta and gamma ENaC subunits) (Homo sapiens, UniProt P37088+P51168+P51170); test: FLIPR membrane potential dye assay, dye loaded in 140 mM NaCl (Protocol 2), alphaENaC-transfected HEK293 cells; type: cell-based; settings: 3 micromolar amiloride
T2 construct: expressed in transfected cells; host or cells: HEK293, transient transfection
T2 sequence (P37088 1-669): T1 sequence (P37088 1-669)
T2 sequence (P51168 1-640): T1 sequence (P51168 1-640)
T2 sequence (P51170 1-649): T1 sequence (P51170 1-649)
Text: This example relates to the fluorescent experiments contained in FIG. 2, Panels A, B and C. In the experiment in Panel A it can be seen that the enhancer S559 increases the NaCl-induced change in membrane potential in HEK293 cells expressing the alphaENaC channel. HEK293 cells were transiently transfected with plasmids containing sequences encoding the human alpha, beta, and gamma ENaC subunits and were loaded with a membrane potential dye (FMP; Molecular Devices) in the absence of sodium (NaCl was replaced with NMDG) at room temperature for one hour. Cells were then stimulated with 17.5 mM NaCl with (red trace) and without (white trace) 15 micromolar S559. Changes in membrane potential (fluorescent signal) were monitored on a FLIPR system (Molecular Devices). […] Changes in membrane potential (Fluorescent signal) were monitored on a FLIPR system (Molecular Devices).
In the experiment HEK293 cells again transfected transiently with plasmids containing the alpha, beta, and gamma ENaC subunit nucleic acid sequences and were treated as described in Example 2., Panel B (Protocol 2). Changes in membrane potential (fluorescent signal) were monitored on a FLIPR system (Molecular Devices). […] Changes in membrane potential (fluorescent signal) were monitored on a FLIPR system (Molecular Devices). […]

[5] = molecular target: T3, deltaENaC channel (gamma, beta, and delta subunit) (Homo sapiens, UniProt P51168+P51170+P51172); test: FLIPR membrane potential dye assay, dye loaded in absence of sodium (Protocol 1), deltaENaC-transfected HEK293 cells; type: cell-based; settings: 50 micromolar amiloride; 70 mM NaCl stimulus; dye loaded without sodium (NMDG)
T3 construct: expressed in transfected cells; host or cells: HEK293, transient transfection
T3 sequence (P51172 1-638 isoform P51172-1): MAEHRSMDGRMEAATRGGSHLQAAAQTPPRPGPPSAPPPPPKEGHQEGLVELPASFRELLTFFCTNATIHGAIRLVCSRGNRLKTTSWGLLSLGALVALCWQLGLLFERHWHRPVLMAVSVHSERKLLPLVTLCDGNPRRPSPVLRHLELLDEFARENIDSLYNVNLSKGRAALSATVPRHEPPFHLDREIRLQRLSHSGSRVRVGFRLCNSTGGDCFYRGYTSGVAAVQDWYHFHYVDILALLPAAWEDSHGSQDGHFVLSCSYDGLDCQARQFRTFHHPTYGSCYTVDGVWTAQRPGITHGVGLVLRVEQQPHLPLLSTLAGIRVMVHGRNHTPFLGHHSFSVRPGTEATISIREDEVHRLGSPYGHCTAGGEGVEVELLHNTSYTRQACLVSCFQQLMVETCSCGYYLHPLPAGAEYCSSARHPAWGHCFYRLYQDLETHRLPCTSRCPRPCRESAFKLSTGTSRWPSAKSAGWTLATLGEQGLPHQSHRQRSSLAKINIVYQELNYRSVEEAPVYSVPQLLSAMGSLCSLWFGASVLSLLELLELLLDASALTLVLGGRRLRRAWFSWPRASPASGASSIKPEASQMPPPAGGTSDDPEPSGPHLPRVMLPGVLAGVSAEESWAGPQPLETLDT
T3 sequence (P51168 1-640): T1 sequence (P51168 1-640)
T3 sequence (P51170 1-649): T1 sequence (P51170 1-649)
Text: as §1

[6] = test system: HEK293 cells; test: FLIPR membrane potential control in mock-transfected or un-transfected HEK293 cells (Protocol 2); type: cell-based; settings: HEK293 transfected with mock plasmid (pUC19)
Method: In the experiment HEK293 cells again transfected transiently with plasmids containing the alpha, beta, and gamma ENaC subunit nucleic acid sequences and were treated as described in Example 2., Panel B (Protocol 2). Changes in membrane potential (fluorescent signal) were monitored on a FLIPR system (Molecular Devices). […] HEK293 cells were transfected with a mock plasmid (pUC19) and treated as described above. Changes in membrane potential (fluorescent signal) were monitored on a FLIPR system (Molecular Devices).
HEK293 cells transiently transfected with plasmids containing nucleic acid sequences encoding the human delta, beta and gamma ENaC subunits and were treated as described in FIG. 2; Panel B (Protocol 2).

NC(=Nc1ccccc1)NC(=O)c1nc(Cl)c(N)nc1N [phenamil]
effect on perceived human salt intensity [1]: did not elicit a significant effect

N=C(N)NC(=O)c1nc(Cl)c(N)nc1N [amiloride]
reduction of intensity of sodium chloride taste [2]: 15-20%
inhibition of NaCl induced changes in membrane potential ([3]; 6.25 micromolar amiloride, 70 mM NaCl stimulus, dye loaded without sodium (NMDG)): totally inhibited
apparent affinity on α-ENaC transfected cells relative to δ-ENaC transfected cells ([3]; dye loaded in absence of sodium, sodium add back): at least 10 fold
potency at inhibiting alphaENaC versus deltaENaC ([3]; increasing concentrations of amiloride, cells treated as in Panels A and B): more potent at inhibiting alphaENaC than deltaENaC
effect on perceived human salt intensity [1]: did not elicit a significant effect
block of S559 enhancer effects [4]: almost totally abolishes
inhibition of NaCl induced change in membrane potential [5]: totally inhibited
effect on membrane potential in cells that do not express alphaENaC [6]: do not exhibit any effect
